Results taken from patent publication US9073876B2, “Flap modulators” (JANSSEN PHARMACEUTICA NV, priority 2013, dated 2015).
Where a name gives a salt, the structure may show the parent alone.

Assays:
human FLAP = human FLAP (Homo sapiens (Human), UniProt P20292); assay: FLAP binding assay (HTRF); conditions: human FLAP-containing membranes, HTRF format; average of two assay plates, duplicates; read-out: FLAP Binding wild type HTRF Ki
In short: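 Averaged over two plates (duplicate wells per plate); output given as HTRF ratio.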

[1] = test system: leukotriene pathway in human whole blood (LTB4 levels); assay: Human whole blood assay (LTB4); assay type: cell-based; conditions: human whole blood diluted 1:1 in RPMI, stimulated with calcium ionophore A23187; single replicate
In short: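 Single-replicate data from at least one healthy donor: compound pre-incubated 15 min at 37° Celsius in 1:1 RPMI-diluted heparinised blood, followed by 30 min calcium ionophore A23187 (7 μg/mL) challenge at 37° Celsius. LTB4 in plasma quantified by kit; IC50 via 4-parameter equation.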

human FLAP, sequence (P20292 whole entry): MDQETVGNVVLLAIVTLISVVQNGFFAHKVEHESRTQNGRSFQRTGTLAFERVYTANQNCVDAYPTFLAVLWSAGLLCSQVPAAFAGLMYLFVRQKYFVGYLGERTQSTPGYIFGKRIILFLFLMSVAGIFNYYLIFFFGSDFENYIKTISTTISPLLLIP

In the case of `Nc1cnc(-c2ccc(C3CCC3)c(Oc3cnccn3)c2F)cn1` [Example 259, 5-(4-Cyclobutyl-2-fluoro-3-(pyrazin-2-yloxy)phenyl)pyrazin-2-amine], the Ki (human FLAP) is reported as 7 nM and the IC50 [1] is reported as 134 nM.

`Nc1cnc(-c2ccc(C3CCC3)c(Oc3ccncn3)c2F)cn1` [Example 260, 5-(4-Cyclobutyl-2-fluoro-3-(pyrimidin-4-yloxy)phenyl)pyrazin-2-amine] gave a Ki (human FLAP) of 19.9 nM and an IC50 [1] of 197 nM.

`CC(C)CNc1nccc(Oc2c(C3CCC3)ccc(-c3cnc(N)cn3)c2F)n1` [Example 261, 4-(3-(5-Aminopyrazin-2-yl)-6-cyclobutyl-2-fluorophenoxy)-N-isobutylpyrimidin-2-amine trifluoroacetic acid salt] was tested, and the Ki (human FLAP) was 1.3 nM and the IC50 [1] was 40.1 nM.

`COC(=O)c1ccc2oc(COc3c(C4CCC4)ccc(-c4cnc(N)cn4)c3F)nc2c1` [Example 262, Methyl 2-{[3-(5-aminopyrazin-2-yl)-6-cyclobutyl-2-fluorophenoxy]methyl}-1,3-benzoxazole-5-carboxylate] gave a Ki (human FLAP) of 19.6 nM and an IC50 [1] of 160 nM.

`COC(=O)c1ccc(O)c(NC(=O)COc2c(C3CCC3)ccc(-c3cnc(N)cn3)c2F)c1` [Example 263, Methyl 3-({[3-(5-aminopyrazin-2-yl)-6-cyclobutyl-2-fluorophenoxy]acetyl}amino)-4-hydroxybenzoate] was tested, and the Ki (human FLAP) was 138 nM and the IC50 [1] was 1960 nM.

`CNc1nc(C)cc(Oc2c(C3CCC3)ccc(-c3cnc(N)cn3)c2F)n1` [Example 269, 4-[3-(5-Aminopyrazin-2-yl)-6-cyclobutyl-2-fluorophenoxy]-N,6-dimethylpyrimidin-2-amine] showed a Ki (human FLAP) of 0.9 nM and an IC50 [1] of 15.1 nM.

For `Nc1cnc(-c2ccc(C3CCC3)c(Oc3nc(N)c4ccccc4n3)c2F)cn1` [Example 272, 2-[3-(5-Aminopyrazin-2-yl)-6-cyclobutyl-2-fluorophenoxy]quinazolin-4-amine], the Ki (human FLAP) was 0.5 nM and the IC50 [1] was 41.9 nM.

For `N#CCOc1c(C2CCC2)ccc(-c2cnc(N)cn2)c1F` [Example 276, [3-(5-Aminopyrazin-2-yl)-6-cyclobutyl-2-fluorophenoxy]acetonitrile], the Ki (human FLAP) was 39.2 nM and the IC50 [1] was 406 nM.

For `Nc1cnc(-c2ccc(C3CCC3)c(Oc3cccnn3)c2F)cn1` [Example 277, 5-[4-Cyclobutyl-2-fluoro-3-(pyridazin-3-yloxy)phenyl]pyrazin-2-amine], the Ki (human FLAP) was 17.7 nM and the IC50 [1] was 135 nM.

Work on `Nc1cnc(-c2ccc(C3CC3)c(Oc3ncccn3)c2F)cn1` [Example 278, 5-[4-Cyclopropyl-2-fluoro-3-(pyrimidin-2-yloxy)phenyl]pyrazin-2-amine] yielded a Ki (human FLAP) of 100 nM and an IC50 [1] of 216 nM.

Work on `Nc1cnc(-c2ccc(C3CC3)c(Oc3nccc(N)n3)c2F)cn1` [Example 279, 2-[3-(5-Aminopyrazin-2-yl)-6-cyclopropyl-2-fluorophenoxy]pyrimidin-4-amine] yielded a Ki (human FLAP) of 67.5 nM and an IC50 [1] of 147 nM.

Work on `COC(=O)c1coc(COc2c(C3CCC3)ccc(-c3cnc(N)cn3)c2F)n1` [Example 281, Methyl 2-{[3-(5-aminopyrazin-2-yl)-6-cyclobutyl-2-fluorophenoxy]methyl}-1,3-oxazole-4-carboxylate trifluoroacetic acid salt] yielded a Ki (human FLAP) of 101 nM and an IC50 [1] of 370 nM.

`Nc1cnc(-c2ccc(C3CCC3)c(OCc3nc(C(=O)O)co3)c2F)cn1` [Example 282, 2-{[3-(5-Aminopyrazin-2-yl)-6-cyclobutyl-2-fluorophenoxy]methyl}-1,3-oxazole-4-carboxylic acid trifluoroacetic acid salt] showed a Ki (human FLAP) of 29.4 nM and an IC50 [1] of over 10000 nM.

`Nc1cnc(-c2ccc(C3CCC3)c(OCc3ccc(Cl)cn3)c2F)cn1` [Example 289, 5-{3-[(5-Chloropyridin-2-yl)methoxy]-4-cyclobutyl-2-fluorophenyl}pyrazin-2-amine trifluoroacetic acid salt] showed a Ki (human FLAP) of 229 nM and an IC50 [1] of 782 nM.

Work on `N#Cc1ccc(COc2c(C3CCC3)ccc(-c3cnc(N)cn3)c2F)cn1` [Example 290, 5-{[3-(5-Aminopyrazin-2-yl)-6-cyclobutyl-2-fluorophenoxy]methyl}pyridine-2-carbonitrile trifluoroacetic acid salt] yielded a Ki (human FLAP) of 39.9 nM and an IC50 [1] of 506 nM.

With `Cc1cc(COc2c(C3CCC3)ccc(-c3cnc(N)cn3)c2F)no1` [Example 291, 5-{4-Cyclobutyl-2-fluoro-3-[(5-methylisoxazol-3-yl)methoxy]phenyl}pyrazin-2-amine trifluoroacetic acid salt] the Ki (human FLAP) was 46.6 nM and the IC50 [1] was 576 nM.

With `N#Cc1cccc(COc2c(C3CCC3)ccc(-c3cnc(N)cn3)c2F)n1` [Example 292, 6-{[3-(5-Aminopyrazin-2-yl)-6-cyclobutyl-2-fluorophenoxy]methyl}pyridine-2-carbonitrile trifluoroacetic acid salt] the Ki (human FLAP) was 37.2 nM and the IC50 [1] was 412 nM.

For `Nc1cnc(-c2ccc(C3CCC3)c(OCCN3C(=O)c4ccccc4C3=O)c2F)cn1` [Example 293, 2-{2-[3-(5-aminopyrazin-2-yl)-6-cyclobutyl-2-fluorophenoxy]ethyl}-1H-isoindole-1,3(2H)-dione], the Ki (human FLAP) was 16.5 nM and the IC50 [1] was 1000 nM.

`Nc1cnc(-c2ccc(C3CCC3)c(OCCNc3cnccn3)c2F)cn1` [Example 295, 5-{4-Cyclobutyl-2-fluoro-3-[2-(pyrazin-2-ylamino)ethoxy]phenyl}pyrazin-2-amine trifluoroacetic acid salt] was tested, and the Ki (human FLAP) was 4.2 nM and the IC50 [1] was 149 nM.

For `Nc1cnc(-c2ccc(C3CCC3)c(OCCNc3ncccn3)c2F)cn1` [Example 296, N-{2-[3-(5-Aminopyrazin-2-yl)-6-cyclobutyl-2-fluorophenoxy]ethyl}pyrimidin-2-amine trifluoroacetic acid salt], the Ki (human FLAP) was 6.8 nM and the IC50 [1] was 350 nM.

`Nc1cnc(-c2ccc(C3CCC3)c(OCCNc3ccncn3)c2F)cn1` [Example 297, N-{2-[3-(5-Aminopyrazin-2-yl)-6-cyclobutyl-2-fluorophenoxy]ethyl}pyrimidin-4-amine] was tested, and the Ki (human FLAP) was 14.4 nM and the IC50 [1] was 263 nM.

`Nc1cnc(-c2ccc(C3CCC3)c(Oc3ncc(-c4cnc(N)nc4)cn3)c2F)cn1` [Example 313, 2′-[3-(5-Aminopyrazin-2-yl)-6-cyclobutyl-2-fluorophenoxy]-5,5′-bipyrimidin-2-amine] showed a Ki (human FLAP) of 2.4 nM and an IC50 [1] of 27 nM.

Work on `CCc1ccc(-c2cnc(N)cn2)c(F)c1Oc1nccc(N)n1` [Example 317, 2-[3-(5-Aminopyrazin-2-yl)-6-ethyl-2-fluorophenoxy]pyrimidin-4-amine] yielded a Ki (human FLAP) of 198 nM and an IC50 [1] of 464 nM.

`CC(C)c1ccc(-c2cnc(N)cn2)c(F)c1Oc1ncccn1` [Example 318, 5-[2-Fluoro-4-(1-methylethyl)-3-(pyrimidin-2-yloxy)phenyl]pyrazin-2-amine] was tested, and the Ki (human FLAP) was 58.1 nM and the IC50 [1] was 103 nM.

In the case of `CCCc1ccc(-c2cnc(N)cn2)c(F)c1Oc1ncccn1` [Example 319, 5-[2-Fluoro-4-propyl-3-(pyrimidin-2-yloxy)phenyl]pyrazin-2-amine], the Ki (human FLAP) is reported as 337 nM and the IC50 [1] is reported as 284 nM.

With `Nc1cnc(-c2ccc(CC3CCCCC3)c(Oc3ncccn3)c2F)cn1` [Example 321, 5-(4-(Cyclohexylmethyl)-2-fluoro-3-(pyrimidin-2-yloxy)phenyl)pyrazin-2-amine] the Ki (human FLAP) was 116 nM and the IC50 [1] was over 10000 nM.

In the case of `CC(C)Cc1ccc(-c2cnc(N)cn2)c(F)c1Oc1ncccn1` [Example 323, 5-(2-Fluoro-4-isobutyl-3-(pyrimidin-2-yloxy)phenyl)pyrazin-2-amine], the Ki (human FLAP) is reported as 211 nM and the IC50 [1] is reported as 141 nM.
